Laboratory results as given in the NIST ThermoML archive (doi:10.1021/je5007696).

Test: refractive index (Na D-line) (dimensionless); xn = mol fraction of the nth substance listed
Conditions: 100 kPa, Liquid, Standard Abbe refractometry

CCC(C)=O [butanone] + CCCCO
refractive index
Conditions	x1 = 0.0997	x1 = 0.1999	x1 = 0.3003	x1 = 0.4008	x1 = 0.5003	x1 = 0.6001	x1 = 0.6992	x1 = 0.7991	x1 = 0.899	x1 = 1
288.15 K	1.39943	1.3975	1.39558	1.39362	1.39169	1.38971	1.38771	1.38569	1.38364	1.38153
293.15 K	1.39733	1.39533	1.39333	1.39131	1.38933	1.38729	1.38525	1.38316	1.38108	1.37892
298.15 K	1.39524	1.39315	1.39107	1.38899	1.38696	1.38486	1.38276	1.38062	1.37849	1.37631
303.15 K	1.3931	1.39095	1.38882	1.38669	1.38457	1.38241	1.38025	1.37807	1.37589	1.37366
308.15 K	1.39096	1.38872	1.38651	1.38433	1.38215	1.37995	1.37775	1.37551	1.3733	1.37102
313.15 K	1.38881	1.38649	1.38421	1.38196	1.37973	1.37748	1.37522	1.37293	1.37065	1.36834
318.15 K	1.38664	1.38427	1.38192	1.37958	1.37728	1.37496	1.37265	1.37031	1.36798	1.36565
323.15 K	1.38447	1.38203	1.37959	1.37718	1.3748	1.37244	1.37008	1.36769	1.36531	1.36294
